Earlier results as cited in patent publication US12358889B2, “Vaporizable alkaloid compositions and methods of use thereof” (Ready Mix Naturals, LLC, priority 2023, dated 2025).

Experiments:
TRPV1 = TRPV1 (Homo sapiens, UniProt Q8NER1); conditions: among phytocannabinoids
TRPA1 = TRPA1 (Homo sapiens, UniProt O75762)
TRPV2 = target: T1, TRPV2 (Homo sapiens, UniProt Q9Y5S1); conditions: among phytocannabinoids
T1 sequence (Q9Y5S1 1-764): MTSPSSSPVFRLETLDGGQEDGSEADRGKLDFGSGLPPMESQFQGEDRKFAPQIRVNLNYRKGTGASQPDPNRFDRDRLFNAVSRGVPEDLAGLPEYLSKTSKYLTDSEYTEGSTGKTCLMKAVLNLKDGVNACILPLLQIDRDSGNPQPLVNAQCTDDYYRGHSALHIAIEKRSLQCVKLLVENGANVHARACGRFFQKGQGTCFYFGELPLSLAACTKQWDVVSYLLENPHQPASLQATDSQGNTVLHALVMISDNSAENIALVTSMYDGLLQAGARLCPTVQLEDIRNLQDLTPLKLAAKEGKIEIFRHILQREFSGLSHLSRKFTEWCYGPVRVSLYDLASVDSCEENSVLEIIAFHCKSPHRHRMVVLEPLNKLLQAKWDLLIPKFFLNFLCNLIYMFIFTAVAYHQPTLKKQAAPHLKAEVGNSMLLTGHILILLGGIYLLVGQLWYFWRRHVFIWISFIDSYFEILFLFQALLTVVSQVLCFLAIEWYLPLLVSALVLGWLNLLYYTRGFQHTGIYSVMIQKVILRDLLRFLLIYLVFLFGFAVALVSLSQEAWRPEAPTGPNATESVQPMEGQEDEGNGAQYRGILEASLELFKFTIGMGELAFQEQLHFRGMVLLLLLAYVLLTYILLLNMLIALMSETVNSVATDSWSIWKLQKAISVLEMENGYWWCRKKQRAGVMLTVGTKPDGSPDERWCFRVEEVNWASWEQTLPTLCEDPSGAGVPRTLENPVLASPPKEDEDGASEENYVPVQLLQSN

TRPA1, sequence (O75762 whole entry, species assumed): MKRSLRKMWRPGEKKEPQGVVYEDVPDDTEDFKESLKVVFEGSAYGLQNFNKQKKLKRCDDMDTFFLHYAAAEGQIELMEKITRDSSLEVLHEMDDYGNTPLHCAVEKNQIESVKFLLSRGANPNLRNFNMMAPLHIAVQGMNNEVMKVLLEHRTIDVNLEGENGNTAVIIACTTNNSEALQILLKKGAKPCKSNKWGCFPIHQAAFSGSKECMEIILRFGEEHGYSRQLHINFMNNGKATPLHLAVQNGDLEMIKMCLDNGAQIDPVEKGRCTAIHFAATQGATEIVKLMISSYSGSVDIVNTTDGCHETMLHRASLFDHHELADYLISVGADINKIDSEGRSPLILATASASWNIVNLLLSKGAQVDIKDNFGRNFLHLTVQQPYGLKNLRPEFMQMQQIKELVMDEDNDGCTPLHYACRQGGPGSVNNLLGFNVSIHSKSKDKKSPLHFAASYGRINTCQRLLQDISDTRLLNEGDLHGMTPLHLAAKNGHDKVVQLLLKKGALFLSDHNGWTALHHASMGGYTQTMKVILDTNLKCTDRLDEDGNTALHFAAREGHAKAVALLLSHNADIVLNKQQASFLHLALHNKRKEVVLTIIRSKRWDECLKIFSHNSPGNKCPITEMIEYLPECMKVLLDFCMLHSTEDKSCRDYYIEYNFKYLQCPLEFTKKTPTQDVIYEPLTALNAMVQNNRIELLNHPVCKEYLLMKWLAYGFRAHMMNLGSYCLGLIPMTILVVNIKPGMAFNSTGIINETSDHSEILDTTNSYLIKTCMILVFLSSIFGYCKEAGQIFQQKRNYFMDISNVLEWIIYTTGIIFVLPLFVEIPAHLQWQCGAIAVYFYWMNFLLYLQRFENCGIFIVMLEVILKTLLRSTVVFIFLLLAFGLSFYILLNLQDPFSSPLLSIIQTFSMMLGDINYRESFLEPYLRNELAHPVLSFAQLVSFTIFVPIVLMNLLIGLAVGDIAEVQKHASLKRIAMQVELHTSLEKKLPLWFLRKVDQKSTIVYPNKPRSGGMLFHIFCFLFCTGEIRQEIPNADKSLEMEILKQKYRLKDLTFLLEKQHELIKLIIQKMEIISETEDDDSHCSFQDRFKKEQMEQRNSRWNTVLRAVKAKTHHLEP
TRPV1, sequence (Q8NER1 whole entry, species assumed): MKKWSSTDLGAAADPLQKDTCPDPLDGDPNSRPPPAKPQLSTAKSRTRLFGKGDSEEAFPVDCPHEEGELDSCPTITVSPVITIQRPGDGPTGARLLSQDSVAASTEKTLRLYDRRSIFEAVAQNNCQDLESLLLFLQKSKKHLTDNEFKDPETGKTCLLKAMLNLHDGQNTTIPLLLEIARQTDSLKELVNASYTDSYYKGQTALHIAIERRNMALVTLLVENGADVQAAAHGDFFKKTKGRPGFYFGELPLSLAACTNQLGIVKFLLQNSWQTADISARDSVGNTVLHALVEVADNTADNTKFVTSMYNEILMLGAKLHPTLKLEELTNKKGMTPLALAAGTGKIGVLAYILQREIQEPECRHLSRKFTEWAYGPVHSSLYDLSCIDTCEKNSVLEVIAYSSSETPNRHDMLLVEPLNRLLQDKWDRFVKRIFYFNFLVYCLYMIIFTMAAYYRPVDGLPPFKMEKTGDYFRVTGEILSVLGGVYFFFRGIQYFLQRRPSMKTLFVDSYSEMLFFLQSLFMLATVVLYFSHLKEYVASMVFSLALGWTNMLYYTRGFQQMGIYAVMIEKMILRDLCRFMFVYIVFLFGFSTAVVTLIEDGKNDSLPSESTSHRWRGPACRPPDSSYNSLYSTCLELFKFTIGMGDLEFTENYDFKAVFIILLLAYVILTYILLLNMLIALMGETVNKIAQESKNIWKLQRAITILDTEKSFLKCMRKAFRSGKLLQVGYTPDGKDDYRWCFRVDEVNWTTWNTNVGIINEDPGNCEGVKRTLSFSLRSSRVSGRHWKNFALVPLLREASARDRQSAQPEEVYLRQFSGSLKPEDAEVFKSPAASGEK

| SMILES | agonism of TRPV1 (TRPV1) | activation of TRPA1 (TRPA1) | activation of TRPV2 (TRPV2) |
| --- | --- | --- | --- |
| C=C(C)[C@@H]1CCC(C)=C[C@H]1c1c(O)cc(CCCCC)cc1O [CBD, cannabidiol] | most potent and efficacious phytocannabinoid agonist of TRPV1 |  |  |
| CN1CCCC1c1cccnc1 (stereo not shown) [nicotine] |  | known activator of TRPA1 |  |
| CCCCCc1cc(O)c2c(c1)OC(C)(C)[C@@H]1CCC(C)=C[C@@H]21 [Δ^9-THC, Δ^9-tetrahydrocannabinol] |  | also activates TRPA1 | most potent phytocannabinoid for activating TRPV2 |
